Paper PMC9950431, “A bivalent remipede toxin promotes calcium release via ryanodine receptor activation” (Nature Communications, 2023)
Entries after “also recorded” stand apart in the source; their conditions may differ.

How the values were obtained:
[1] = system: SH-SY5Y neuroblastoma cells; test: FLIPR intracellular Ca2+ assay, SH-SY5Y cells (direct response); format: cell-based, human; settings: Xt3a 3 µM
Method: (§1) SH-SY5Y human neuroblastoma cells (European Collection of Authenticated Cell Culture, Sigma Aldrich, 94030304-1VL) were cultured in RPMI media (ThermoFisher Scientific, Scoresby, Australia) supplemented with 15% foetal bovine serum and L-glutamine (1 mM) and passaged at approximately 80% confluency with TrypLE Express (Thermo Fisher, Australia). For fluorescence imaging, cells were plated on CellBIND (Corning) 384-well black-walled imaging plates at a density of 20,000–30,000 cells/well in complete media and cultured for 48 h at 37 °C/5% CO2.
Briefly, SH-SY5Y cells were loaded with Calcium 4 no-wash dye (Molecular Devices) diluted in physiological salt solution (composition in mM: NaCl 140, D-glucose 11.5, KCl 5.9, MgCl2 1.4, NaH2PO4 1.2, NaHCO3 5, CaCl2 1.8, HEPES 10) for 30 min at 37 °C. A two-addition FLIPR^Tetra (Molecular Devices) protocol using the following settings was used to measure fluorescence responses: excitation 470–495 nm; emission 515–575 nm; excitation intensity 80%; excitation duration 0.8 s; gain 140; read interval 1/s; read number 300/addition. […] Raw fluorescence readings were converted to response over baseline using the analysis tool Screenworks 3.1.1.4 (Molecular Devices) and were expressed relative to the maximum increase in fluorescence of control responses and plotted using GraphPad Prism 9.3.1.

[2] = system: sarcoplasmic reticulum (SR) in mouse extensor digitorum longus (EDL) fibers; test: SR Ca2+ leak in mechanically-skinned EDL muscle fibers (total SR Ca2+ content, [CaT]SR, after 1 min leak); format: cell-based, mouse (C57/Bl6)
From the text: All experiments were approved by The University of Queensland Animal Ethics Committees. Male and female C57/Bl6 2–6-month-old mice were sacrificed by asphyxiation via CO2 exposure and the EDL muscles were rapidly excised. The EDL was pinned at resting length in a petri dish lined with Sylgard 184 (Dow Corning, Midland, MI) and immersed in paraffin oil (Ajax Chemicals, Sydney, Australia). Segments of individual fibers were mechanically skinned using jeweler’s forceps and pinned out unstretched under oil[37]–[39]. The skinned fiber was then mounted at 120% of resting length on a force transducer (Myotronic UG, Heidelberg, Germany) before transfer to a 2-ml Perspex bath containing standard K^+-based solution that broadly mimics the intracellular milieu. […] All chemicals were purchased from Sigma-Aldrich (St Louis, MO, USA) unless specified otherwise.
Variations of the standard solution were prepared. To deplete the caffeine releasable Ca^2+ (“full release solution”), 30 mM caffeine was added, [Mg^2+] was lowered to 0.05 mM (total Mg^2+ of 2.1 mM) and free EGTA was adjusted to 0.5 mM (pCa 8.5) to chelate released Ca^2+. To measure the maximum force produced by the skinned fiber, all HDTA was replaced by EGTA (relaxing solution) or CaEGTA (maximum Ca^2+ activating solution). The relaxing solution contained 50 mM EGTA and no added Ca^2+ (pCa > 9) and the maximum Ca^2+-activating solution contained 49.5 mM Ca^2+ (pCa 4.7), with total Mg^2+ of 10.3 and 8.1 mM, respectively, to maintain the free [Mg^2+] at 1 mM. A “leak solution” was also prepared, where [Mg^2+] set at 0.1 mM (total Mg^2+ of 3.4 mM) to increase the PO of RyR and with 2 mM EGTA (pCa ~8.5) to chelate leaky Ca^2+ from the SR. […] The BAPTA solution used to pre-equilibrate fibers before lysing was similar to the standard K-HDTA solution but EGTA was replaced with 0.1–1.6 mM BAPTA[37],[39].
The skinned fiber was then equilibrated for 20 s in a solution with a set [BAPTA] before being placed in a freshly triturated emulsion of Triton X-100 in paraffin oil (TX–oil) (10% v/v). The Ca^2+ released upon the membrane lysing rapidly binds to the known amount of BAPTA present within the fiber and to other sites, predominantly troponin C (TnC). The pre-equilibrating [BAPTA] was chosen such that the fiber produced a finite, non-maximal force response upon lysis. Pre-treatment of the fiber with “full release solution” allowed the non-SR Ca^2+ content of the skinned fiber to be assayed. The total amount of Ca^2+ present in the fiber could be calculated from the [BAPTA] in the equilibration solution and the magnitude of the force response. Data are presented as mean ± SD, with n denoting the number of fibers examined. Statistical significance (p < 0.05) was determined with One-way ANOVA.

α7 nAChR = test: FLIPR Ca2+ assay, inhibition of endogenous α7 nAChR; format: cell-based, human; settings: for Ca2+ response relative to control response: 3 µM Xt3a pre-treatment, choline 30 μM/PNU-120596 10 μM, over 300 s
Method: as §1
(§2) Briefly, SH-SY5Y cells were loaded with Calcium 4 no-wash dye (Molecular Devices) diluted in physiological salt solution (composition in mM: NaCl 140, D-glucose 11.5, KCl 5.9, MgCl2 1.4, NaH2PO4 1.2, NaHCO3 5, CaCl2 1.8, HEPES 10) for 30 min at 37 °C. A two-addition FLIPR^Tetra (Molecular Devices) protocol using the following settings was used to measure fluorescence responses: excitation 470–495 nm; emission 515–575 nm; excitation intensity 80%; excitation duration 0.8 s; gain 140; read interval 1/s; read number 300/addition. Responses mediated via endogenously expressed ion channels were elicited by addition of: choline (30 μM)/PNU-120596 (10 μM) for α7 nAChR-mediated responses; nicotine (30 μM) for α3β2/α3β4 nAChR-mediated responses; KCl (90 mM)/CaCl2 (5 mM) for CaV1.3-mediated responses; KCl (90 mM)/CaCl2 (5 mM) + nifedipine (10 μM) for CaV2.2-mediated responses; vertridine (70 μM) for NaV1.2-mediated responses; and veratridine (4 μM)/OD1 (300 nM) for NaV1.7-mediated responses. Raw fluorescence readings were converted to response over baseline using the analysis tool Screenworks 3.1.1.4 (Molecular Devices) and were expressed relative to the maximum increase in fluorescence of control responses and plotted using GraphPad Prism 9.3.1.
(§3) In the cell-based FLIPR assays statistical analysis was performed using GraphPad Prism 9.3.1. Statistical significance was defined as p < 0.05, and determined by one-sample t-test assessing difference to the control value of 100%. In α7 nAChR, α3-containing nAChR, CaV1.3, CaV2.2, NaV1.2 and NaV1.7 channels (Supplementary Fig. 5B), with distribution (t) and degrees of freedom (df) being: t = 0.9683, df = 2 (α7); t = 1.338, df = 2 (α3); t = 1.775, df = 2 (NaV1.2); t = 1.478

NaV1.2 = test: FLIPR Ca2+ assay, inhibition of endogenous NaV1.2; format: cell-based, human; settings: for Ca2+ response relative to control response: 3 µM Xt3a pre-treatment, veratridine 70 μM, over 300 s
Method: as §1, §2, §3

[3] = system: α3β2/α3β4 nAChR (α3-containing nAChR); test: FLIPR Ca2+ assay, inhibition of endogenous α3-containing nAChR; format: cell-based, human; settings: for Ca2+ response relative to control response: 3 µM Xt3a pre-treatment, nicotine 30 μM, over 300 s
Method: as §1, §2, §3

Substance: φ-Xibalbin3-Xt3a
- increase in intracellular Ca2+ [1]: did not elicit an increase in intracellular Ca^2+; also recorded: does not elicit an increase in intracellular Ca2+ responses
- efficiency to increase SR Ca2+ leakage (order) ([2]; 10 nM): Xt3a > Xt3a-D1 ~ IpTxA > Xt3a-D2
- depletion of [CaT]SR ([2]; 10 nM peptide in leak solution, 1 min leak, mean ± SD, control leak 18 ± 7%): 76 ± 5%
- Relative amount of total Ca2+ left in the SR ([CaT]SR) ([2]; 10 nM peptide, 1 min leak, relative to Pre, fiber 2 of column): 20.6
- Relative amount of total Ca2+ left in the SR ([CaT]SR) ([2]; 10 nM peptide, 1 min leak, relative to Pre, fiber 3 of column): 24.9
- Relative amount of total Ca2+ left in the SR ([CaT]SR) ([2]; 10 nM peptide, 1 min leak, relative to Pre, fiber 4 of column): 22.9
- Relative amount of total Ca2+ left in the SR ([CaT]SR) ([2]; 10 nM peptide, 1 min leak, relative to Pre, fiber 5 of column): 23.5
- Relative amount of total Ca2+ left in the SR ([CaT]SR) ([2]; 10 nM peptide, 1 min leak, relative to Pre, fiber 6 of column): 22.7
- Relative amount of total Ca2+ left in the SR ([CaT]SR) ([2]; 10 nM peptide, 1 min leak, relative to Pre, fiber 7 of column): 27.4
- Relative amount of total Ca2+ left in the SR ([CaT]SR) ([2]; 10 nM peptide, 1 min leak, relative to Pre, fiber 8 of column): 27.5
- Relative amount of total Ca2+ left in the SR ([CaT]SR) ([2]; 10 nM peptide, 1 min leak, relative to Pre, fiber 9 of column): 25.7
- Relative amount of total Ca2+ left in the SR ([CaT]SR) ([2]; 10 nM peptide, 1 min leak, relative to Pre, fiber 10 of column): 30.9
- Relative amount of total Ca2+ left in the SR ([CaT]SR) ([2]; 10 nM peptide, 1 min leak, relative to Pre, fiber 11 of column): 32.9
- Relative amount of total Ca2+ left in the SR ([CaT]SR) ([2]; 10 nM peptide, 1 min leak, relative to Pre, fiber 12 of column): 22.4
- Relative amount of total Ca2+ left in the SR ([CaT]SR) ([2]; 10 nM peptide, 1 min leak, relative to Pre, fiber 13 of column): 13.3
- Relative amount of total Ca2+ left in the SR ([CaT]SR), mean ([2]; 10 nM peptide, 1 min leak, relative to Pre, mean (n = 13 Xt3a, n = 10 others)): 24.4
- Relative amount of total Ca2+ left in the SR ([CaT]SR) ([2]; 10 nM peptide, 1 min leak, relative to [CaT]SR before the leak (Pre), fiber 1 of column): 21.9
- Ca2+ response relative to control response (α7 nAChR; replicate 1): 99.1155%
- Ca2+ response relative to control response (α7 nAChR; replicate 2): 100.788%
- Ca2+ response relative to control response (α7 nAChR; replicate 3): 96.222%
- inhibition of Ca2+ responses (α7 nAChR; Xt3a 3 µM): did not inhibit Ca^2+ responses
- Ca2+ response relative to control response (NaV1.2; replicate 1): 91.9349%
- Ca2+ response relative to control response (NaV1.2; replicate 2): 100.571%
- Ca2+ response relative to control response (NaV1.2; replicate 3): 88.9832%
- inhibition of Ca2+ responses (NaV1.2; Xt3a 3 µM): did not inhibit Ca^2+ responses
- Ca2+ response relative to control response ([3]; replicate 1): 102.763%
- Ca2+ response relative to control response ([3]; replicate 2): 100.13%
- Ca2+ response relative to control response ([3]; replicate 3): 100.441%
- inhibition of Ca2+ responses ([3]; Xt3a 3 µM): did not inhibit Ca^2+ responses
